This passage reports Ki results from patent US20120172397A1, “HEXAHYDROCYCLOPENTA[f]INDAZOLE 5-YL ETHANOLS AND DERIVATIVES THEREOF AS SELECTIVE GLUCOCORTICOID RECEPTOR MODULATORS” (MERCK SHARP & DOHME CORP., priority 2009, published 2012).

pKi: −log10 of the molar value.

The assay deals with T1, glucocorticoid receptor (GR) (Homo sapiens, UniProt P04150).
T1 construct: Preparation of HeLa Cell Lysate; endogenous in cells; host or cells: HeLa (ATCC) cell lysate supernatant
T1 sequence (P04150 1-777): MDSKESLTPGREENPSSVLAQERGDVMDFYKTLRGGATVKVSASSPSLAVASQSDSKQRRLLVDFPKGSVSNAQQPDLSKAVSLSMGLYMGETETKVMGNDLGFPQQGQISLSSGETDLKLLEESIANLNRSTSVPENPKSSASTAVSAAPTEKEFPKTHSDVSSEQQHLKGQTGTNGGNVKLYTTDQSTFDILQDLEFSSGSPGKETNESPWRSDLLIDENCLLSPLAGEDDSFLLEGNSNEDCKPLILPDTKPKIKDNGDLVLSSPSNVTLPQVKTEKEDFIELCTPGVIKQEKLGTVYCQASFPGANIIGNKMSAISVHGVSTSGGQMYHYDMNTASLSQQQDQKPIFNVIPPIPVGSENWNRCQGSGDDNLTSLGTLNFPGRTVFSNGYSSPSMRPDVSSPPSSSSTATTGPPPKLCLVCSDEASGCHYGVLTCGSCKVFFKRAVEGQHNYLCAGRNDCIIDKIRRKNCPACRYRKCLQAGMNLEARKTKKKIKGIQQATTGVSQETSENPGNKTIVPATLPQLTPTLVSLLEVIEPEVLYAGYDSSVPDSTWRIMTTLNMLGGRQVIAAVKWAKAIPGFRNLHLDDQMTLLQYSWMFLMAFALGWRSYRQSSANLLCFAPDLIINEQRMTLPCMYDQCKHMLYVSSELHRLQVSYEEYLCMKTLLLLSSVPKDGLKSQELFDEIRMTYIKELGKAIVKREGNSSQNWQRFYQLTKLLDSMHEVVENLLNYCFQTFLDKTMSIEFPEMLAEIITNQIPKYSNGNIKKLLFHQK
The assay is described as follows: GR Ligand Binding Assay (BIND), 3H-dexamethasone displacement in HeLa cell lysate. Particulars: 3H-DEX trace, 4° C. overnight. As for the experimental part: Binding Buffer: TEGM (10 mM Tris-HCl, 1 mM EDTA, 10% glycerol, 1 rnM beta-mecaptoethanol, 10 mM Sodium Molybdate, pH 7.2)
50% HAP Slurry: Calbiochem Hydroxylapatite, Fast Flow, in 10 mM Iris, pH 8.0 and 1 mM EDTA.
Wash Buffer: 40 mM Tris, pH7.5, 100 mM KCl, 1 mM EDTA and 1 mM EGTA. 95% EtOH
Dexmethasone-methyl-^3H, (DEX*); (Amersham cat# TRK645)
Dexamethasone(DEX) (Sigma, cat# D1756):
Cells (Hall R. E., et al., European Journal of Cancer, 30A: 484-490 (1994)) HeLa (ATCC) cultured in RPMI 1640 (Gibco 11835-055) containing 20 mM Hepes, 4 mM L-glu, 10 μg/ml of human insulin (Sigma, I-0259), 10% FBS and 20 μg/ml of Gentamicin (Gibco#15710-072) are rinsed twice in PBS. Phenol red-free Trypsin-EDTA is diluted in the same PBS 1:10. The cell layers are rinsed with 1× Trypsin, extra Trypsin is poured out, and the cell layers are incubated at 37° C. for ˜2 min. The flask is tapped and checked for signs of cell detachment. Once the cells begin to slide off the flask, the complete media is added. The cells are counted at this point, then diluted to the appropriate concentration and split into flasks or dishes for further culturing (Usually 1:3 to 1:6 dilution).
When the cells are 70 to 85% confluent, they are detached as described above, and collected by centrifuging at 1000 g for 10 minutes at 4° C. The cell pellet is washed twice with TEGM (10 mM Tris-HCl, 1 mM EDTA, 10% glycerol, 1 mM beta-mercaptoethanol, 10 mM Sodium Molybdate, pH 7.2). After the final wash, the cells are resuspended in TEGM at a concentration of 10^7 cells/mL. The cell suspension is snap frozen in liquid nitrogen or ethanol/dry ice bath and transferred to −80° C. freezer on dry ice. Before setting up the binding assay, the frozen samples are left on ice-water to just thaw (˜1 hr). Then the samples are centrifuged at 12,500 g to 20,000 g for 30 min at 4° C. The supernatant is used to set-up assay right away. If using 50 μL of supernatant, the test compound can be prepared in 50 μL of the TEGM buffer.
1× TEGM buffer is prepared, and the isotope-containing assay mixture is prepared in the following order: EtOH (2% final concentration in reaction), ^3H-DEX (Amersham Biosciences) and 1× TEGM. [e.g. For 100 samples, 200 μL (100×2) of EtOH+4.25 μL of 1:10 ^3H-Dex stock+2300 μL (100×23) 1× TEGM]. The compound is serially diluted, e.g., if starting final conc. is 1 μM, and the compound is in 25 μL of solution, for duplicate samples, 75 μL of 4×1 μM solution is made and 3 μL of 100 μM is added to 72 μL of buffer, and 1:5 serial dilution.
25 μL of ^3H-DEX (6 nM) trace and 25 μL compound solution are first mixed together, followed by addition of 50 μL receptor solution. The reaction is gently mixed, spun briefly at about 200 rpm and incubated at 4° C. overnight. 100 μL of 50% HAP slurry is prepared and added to the incubated reaction which is then vortexed and incubated on ice for 5 to 10 minutes. The reaction mixture is vortexed twice more to resuspend HAP while incubating reaction. The samples in 96-well format are then washed in wash buffer using The FilterMate™ Universal Harvester plate washer (Packard). The washing process transfers HAP pellet containing ligand-bound expressed receptor to Unifilter-96 GF/B filter plate (Packard). The HAP pellet on the filter plate is incubated with 50 μL of MICROSCINT (Packard) scintillint for 30 minutes before being counted on the TopCount microscintillation counter (Packard). IC50s are calculated using DEX as a reference.
Regarding `C[C@]12Cc3cnn(-c4cccnc4)c3C=C1CC[C@@H]2CC(O)c1ccccn1` (single isomer, unassigned) [Example 6b], the pKi is 6.82.
For `COc1cccc(C(O)C[C@H]2CCC3=Cc4c(cnn4-c4cccnc4)C[C@@]32C)c1` (single isomer, unassigned) [Example 4a] the value was 8.44.
In the case of `C[C@]12Cc3cnn(-c4cccnc4)c3C=C1CC[C@@H]2CC(O)c1ccccc1` (single isomer, unassigned) [Example 1a] it was 8.46; in that of `COc1ccccc1C(O)C[C@H]1CCC2=Cc3c(cnn3-c3cccnc3)C[C@@]21C` (single isomer, unassigned) [Example 2a], 8.14.
The compound `COc1cccc(C(O)C[C@H]2CCC3=Cc4c(cnn4-c4cccnc4)C[C@@]32C)c1` (single isomer, unassigned) [Example 4b] showed a pKi of 8.08.
For `CC(O)(C[C@H]1CCC2=Cc3c(cnn3-c3cccnc3)C[C@@]21C)c1ccccc1` (single isomer, unassigned) [Example 7a] the value was 8.64; for `CC(O)(C[C@H]1CCC2=Cc3c(cnn3-c3cccnc3)C[C@@]21C)c1ccccc1` (single isomer, unassigned) [Example 7b], 8.32; for `COc1ccc(C(O)C[C@H]2CCC3=Cc4c(cnn4-c4cccnc4)C[C@@]32C)cn1` (stereo partly drawn) [Example 3, 1-(6-methoxypyridin-3-yl)-2-[(4αR,5R)-4α-methyl-1-(pyridin-3-yl)-1,4,4α,5,6,7-hexahydrocyclopenta[f]indazol-5-yl] ethanol], 8.07.
For `COc1ccccc1C(O)C[C@H]1CCC2=Cc3c(cnn3-c3cccnc3)C[C@@]21C` (single isomer, unassigned) [Example 2b] the value was 8.05; for `C[C@]12Cc3cnn(-c4cccnc4)c3C=C1CC[C@@H]2CC(O)c1ccccn1` (single isomer, unassigned) [Example 6a], 6.46; for `C[C@]12Cc3cnn(-c4cccnc4)c3C=C1CC[C@@H]2CC(O)c1ccccc1` (single isomer, unassigned) [Example 1b], 8.06.
For `COc1ccc(C(O)C[C@H]2CCC3=Cc4c(cnn4-c4cccnc4)C[C@@]32C)cc1` (stereo partly drawn) [Example 5, 1-(4-methoxyphenyl)-2-[(4αR,5R)-4α-methyl-1-(pyridin-3-yl)-1,4,4α,5,6,7-hexahydrocyclopenta[f]indazol-5-yl] ethanol] the value was 9.05.

The pKi is −log10 of the Ki, conventionally taken in molar units. A low value points to a large Ki.
